The values that follow come from patent publication US11878975B2, “Substituted indole compounds useful as TLR inhibitors” (BRISTOL-MYERS SQUIBB COMPANY, priority 2017, dated 2024).

Each structure is given as a SMILES string.

Holding throughout (format): cell-based
One test addresses T1, human TLR9 (Homo sapiens, UniProt Q9NR96).
T1 construct: host or cells: HEK-Blue cells
T1 sequence (Q9NR96 26-1032): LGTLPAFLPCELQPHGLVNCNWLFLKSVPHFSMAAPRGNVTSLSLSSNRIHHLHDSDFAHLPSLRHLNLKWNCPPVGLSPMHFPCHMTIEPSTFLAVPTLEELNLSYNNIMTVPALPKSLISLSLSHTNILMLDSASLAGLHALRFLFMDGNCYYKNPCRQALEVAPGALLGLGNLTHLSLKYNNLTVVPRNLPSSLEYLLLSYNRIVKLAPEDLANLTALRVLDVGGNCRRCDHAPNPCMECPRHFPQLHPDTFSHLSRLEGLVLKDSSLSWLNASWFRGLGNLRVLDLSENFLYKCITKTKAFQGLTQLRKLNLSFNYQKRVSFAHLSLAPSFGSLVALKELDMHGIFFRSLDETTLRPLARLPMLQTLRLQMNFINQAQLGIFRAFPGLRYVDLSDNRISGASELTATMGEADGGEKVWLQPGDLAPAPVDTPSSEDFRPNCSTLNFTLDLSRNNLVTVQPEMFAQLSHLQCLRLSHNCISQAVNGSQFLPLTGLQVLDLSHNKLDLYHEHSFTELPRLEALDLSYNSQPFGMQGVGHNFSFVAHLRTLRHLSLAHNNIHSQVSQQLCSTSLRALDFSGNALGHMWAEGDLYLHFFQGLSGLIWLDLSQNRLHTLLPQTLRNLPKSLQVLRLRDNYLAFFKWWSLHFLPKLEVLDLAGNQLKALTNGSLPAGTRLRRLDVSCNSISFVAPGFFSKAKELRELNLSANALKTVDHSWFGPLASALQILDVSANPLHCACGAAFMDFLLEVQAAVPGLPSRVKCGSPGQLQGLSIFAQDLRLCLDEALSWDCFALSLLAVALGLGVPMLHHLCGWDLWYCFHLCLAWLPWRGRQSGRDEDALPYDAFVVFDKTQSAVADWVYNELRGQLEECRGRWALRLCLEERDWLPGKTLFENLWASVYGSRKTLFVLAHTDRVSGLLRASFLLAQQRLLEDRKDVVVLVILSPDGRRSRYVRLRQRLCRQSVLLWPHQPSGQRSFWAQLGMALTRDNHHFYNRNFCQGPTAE
Briefly: TLR9 inhibition reporter assay (HEK-Blue cells, SEAP reporter, ODN2006 stimulation). The note with it: HEK-Blue cells overexpressing human TLR9, SEAP reporter, ODN2006 5 nM. In a few lines:
(§1)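 SEAP readout after 22 h agonist exposure at 37 °C; final agonist levels were 7.5 μM gardiquimod (TLR7), 15.9 μM R848 (TLR8) and 5 nM ODN2006 (TLR9). Inhibitors, spanning 0.05 nM to 50 μM final, were applied 30 min beforehand.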
(In general: In a reporter assay the amount or activity of a reporter protein is the signal.)

The target of another test is T2, human TLR7 (Homo sapiens, UniProt Q9NYK1).
T2 construct: host or cells: HEK-Blue cells
T2 sequence (Q9NYK1 27-1049): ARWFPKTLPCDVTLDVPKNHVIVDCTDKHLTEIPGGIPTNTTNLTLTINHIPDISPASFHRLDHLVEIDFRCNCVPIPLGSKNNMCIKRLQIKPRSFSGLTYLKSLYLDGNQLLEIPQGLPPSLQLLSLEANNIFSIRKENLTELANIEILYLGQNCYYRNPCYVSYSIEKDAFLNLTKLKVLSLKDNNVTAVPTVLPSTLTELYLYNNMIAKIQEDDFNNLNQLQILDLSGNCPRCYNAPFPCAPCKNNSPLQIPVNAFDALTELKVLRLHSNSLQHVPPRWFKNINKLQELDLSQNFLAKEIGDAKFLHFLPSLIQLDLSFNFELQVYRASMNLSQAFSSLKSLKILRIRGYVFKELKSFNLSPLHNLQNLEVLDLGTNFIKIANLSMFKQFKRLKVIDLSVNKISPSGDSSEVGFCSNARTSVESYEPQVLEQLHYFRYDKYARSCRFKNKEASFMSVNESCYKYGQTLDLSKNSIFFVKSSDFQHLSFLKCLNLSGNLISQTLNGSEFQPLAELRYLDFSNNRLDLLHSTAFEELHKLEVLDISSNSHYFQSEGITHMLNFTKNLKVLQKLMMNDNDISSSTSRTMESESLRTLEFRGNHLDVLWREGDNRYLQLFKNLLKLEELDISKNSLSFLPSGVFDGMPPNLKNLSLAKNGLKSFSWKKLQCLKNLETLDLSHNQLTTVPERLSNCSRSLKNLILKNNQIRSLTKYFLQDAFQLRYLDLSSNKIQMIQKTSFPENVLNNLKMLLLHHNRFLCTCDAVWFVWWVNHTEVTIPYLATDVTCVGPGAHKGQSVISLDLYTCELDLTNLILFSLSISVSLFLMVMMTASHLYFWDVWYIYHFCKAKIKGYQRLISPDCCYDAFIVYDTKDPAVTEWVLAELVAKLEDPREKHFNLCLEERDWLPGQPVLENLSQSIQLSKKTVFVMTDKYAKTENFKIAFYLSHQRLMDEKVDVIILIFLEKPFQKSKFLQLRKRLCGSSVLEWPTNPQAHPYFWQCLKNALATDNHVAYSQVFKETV
Briefly: TLR7 inhibition reporter assay (HEK-Blue cells, SEAP reporter, gardiquimod stimulation). The note with it: HEK-Blue cells overexpressing human TLR7, SEAP reporter, gardiquimod 7.5 μM. The procedure, abridged: as §1

A further test addresses T3, human TLR8 (Homo sapiens, UniProt Q9NR97).
T3 construct: host or cells: HEK-Blue cells
T3 sequence (Q9NR97 27-1041): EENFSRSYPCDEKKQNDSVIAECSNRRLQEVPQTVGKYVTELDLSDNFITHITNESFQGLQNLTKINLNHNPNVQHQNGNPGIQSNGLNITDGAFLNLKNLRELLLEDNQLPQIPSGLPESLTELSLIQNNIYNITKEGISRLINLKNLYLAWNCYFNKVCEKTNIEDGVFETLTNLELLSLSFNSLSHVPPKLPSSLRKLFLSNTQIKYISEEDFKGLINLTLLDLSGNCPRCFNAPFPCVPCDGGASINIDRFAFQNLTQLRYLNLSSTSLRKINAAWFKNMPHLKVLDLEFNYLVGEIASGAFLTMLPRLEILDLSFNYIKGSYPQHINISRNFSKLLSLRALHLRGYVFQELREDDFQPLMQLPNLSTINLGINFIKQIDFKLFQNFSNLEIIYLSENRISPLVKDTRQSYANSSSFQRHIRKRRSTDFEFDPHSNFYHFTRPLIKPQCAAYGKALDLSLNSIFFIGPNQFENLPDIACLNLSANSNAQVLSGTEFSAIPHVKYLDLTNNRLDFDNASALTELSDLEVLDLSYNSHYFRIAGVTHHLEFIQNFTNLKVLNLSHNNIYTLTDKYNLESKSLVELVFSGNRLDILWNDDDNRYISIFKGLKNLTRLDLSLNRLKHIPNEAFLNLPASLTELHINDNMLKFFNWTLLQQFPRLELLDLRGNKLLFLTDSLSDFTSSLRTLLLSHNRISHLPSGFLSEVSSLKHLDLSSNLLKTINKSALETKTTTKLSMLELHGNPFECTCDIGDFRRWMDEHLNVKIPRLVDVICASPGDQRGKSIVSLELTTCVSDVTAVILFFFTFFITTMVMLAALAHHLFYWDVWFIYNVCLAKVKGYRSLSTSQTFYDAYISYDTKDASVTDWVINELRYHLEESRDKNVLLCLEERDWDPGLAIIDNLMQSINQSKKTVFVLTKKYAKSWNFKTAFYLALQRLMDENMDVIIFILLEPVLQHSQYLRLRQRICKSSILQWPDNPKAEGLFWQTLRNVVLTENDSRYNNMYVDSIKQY
Briefly: TLR8 inhibition reporter assay (HEK-Blue cells, SEAP reporter, R848 stimulation). As to conditions: HEK-Blue cells overexpressing human TLR8, SEAP reporter, R848 15.9 μM. In a few lines: as §1

As usually defined, the IC50 is the concentration needed to halve the response being measured. A higher IC50 goes with weaker potency.

As for `COc1cc(-c2[nH]c3ccc(C4CCCN(C5COC5)C4)cc3c2C(C)C)cn2ncnc12` (stereo not drawn) [Example 242], the figures for the concentration for half-maximal inhibition (IC50) against human TLR9, at human TLR7 and against human TLR8 were 25400 nM, 8 nM and 2.4 nM, respectively.
The matching figures for `Cc1c(-c2[nH]c3ccc(C4CCC(N5CC(CO)(CO)C5)CC4)cc3c2C(C)C)cn2ncnc2c1C` (single isomer, unassigned) [Example 27]: 1760 nM, 2 nM and 2.8 nM.
With `Cc1c(-c2[nH]c3ccc(CC4CCCN4C4CCOCC4)cc3c2C(C)C)cn2cnnc2c1C` (stereo not drawn) [Example 429], the IC50 on human TLR9 worked out at 6780 nM; against human TLR7, 11 nM; at human TLR8 it was 17 nM.
The corresponding values for `Cc1c(-c2[nH]c3ccc(C4CN(CCS(C)(=O)=O)C4)cc3c2C(C)C)cn(C)c(=O)c1C` [Example 483] are 22700 nM, 61 nM and 8.8 nM.
The corresponding values for `Cc1c(-c2[nH]c3ccc(CC4CCCN4CCS(C)(=O)=O)cc3c2C(C)C)cn2cnnc2c1C` (stereo not drawn) [Example 428] are 16200 nM, 49 nM and 15 nM.
Regarding `COc1cc(-c2[nH]c3ccc(C4CN(C(C)C)CCO4)cc3c2C(C)C)cn2ncnc12` (stereo not drawn) [Example 300], the concentration for half-maximal inhibition (IC50) at human TLR9 stood at 2500 nM; against human TLR7, 2 nM; at human TLR8, 6.4 nM.
The matching figures for `CNC(=O)CN1CCOC(c2ccc3[nH]c(-c4cc(C)nc(C)c4)c(C(C)C)c3c2)C1` (stereo not drawn) [Example 325]: 36800 nM, 29 nM and 21 nM.
For the compound `CNCC(=O)N1CCOC(c2ccc3[nH]c(-c4cc(OC)c5ncnn5c4)c(C(C)C)c3c2)C1` (stereo not drawn) [Example 342], the half-inhibitory concentration (IC50) on human TLR9 is 1720 nM; against human TLR7, 3 nM; on human TLR8, 16 nM.
The corresponding values for `Cc1cc(-c2[nH]c3ccc(C4CCC(N5CCOCC5)CC4)cc3c2C(C)C)cc(C)n1` (stereo not drawn) [Example 55] are 480 nM, 8 nM and 15 nM.
The corresponding values for `Cc1cc(-c2[nH]c3ccc([C@@H]4C[C@H]4C(=O)N(C)C4CC5CCN4CC5)cc3c2C(C)C)ccn1` (stereo partly drawn) [Example 463] are 406 nM, 35 nM and 15 nM.
The matching figures for `Cc1cc(-c2[nH]c3ccc(C4CCC(O)(C(F)(F)F)CC4)cc3c2C(C)C)cc(C)n1` (stereo not drawn) [Example 175, 4-(2-(2,6-dimethylpyridin-4-yl)-3-isopropyl-1H-indol-5-yl)-1-(trifluoromethyl)cyclohexanol]: 2140 nM, 37 nM and 119 nM.
Regarding `COc1cc(-c2[nH]c3ccc(C4CCC(NC5(C)COC5)CC4)cc3c2C(C)C)cn2ncnc12` (single isomer, unassigned) [Example 45], the IC50 was determined as 1990 nM against human TLR9, 1 nM at human TLR7 and 3.8 nM at human TLR8.
The matching figures for `Cc1c(-c2[nH]c3ccc(C4CC5CN(C)CC5C4)cc3c2C(C)C)cn2cnnc2c1C` (stereo not drawn) [Example 559]: 2120 nM, 2 nM and 9.2 nM.
`Cc1c(-c2[nH]c3ccc(C4CCC(NC5CC5)CC4)cc3c2C(C)C)cn2ncnc2c1C` (stereo not drawn) [Example 14]: the figures for the IC50 against human TLR9, on human TLR7 and against human TLR8 were 4080 nM, 5 nM and 3.5 nM, respectively.
The corresponding values for `Cc1cc(-c2[nH]c3ccc(C4CCCN(C(=O)C5CNC5)C4)cc3c2C(C)C)cc(C)n1` (stereo not drawn) [Example 215] are 677 nM, 19 nM and 123 nM.
As to `Cc1c(-c2[nH]c3ccc(C4CN(CCS(C)(=O)=O)CCO4)cc3c2C(C)C)cn2ncnc2c1C` (stereo not drawn) [Example 347], the IC50 on human TLR9 is > 50000 nM; at human TLR7, 22 nM; at human TLR8 it was 14 nM.
The matching figures for `COc1cc(-c2[nH]c3ccc(C4CC(NC5COC5)C4)cc3c2C(C)C)cn2ncnc12` (stereo not drawn) [Example 579]: 7410 nM, 1 nM and 0.73 nM.
The matching figures for `Cc1cc(-c2[nH]c3ccc(C4CN(CC(N)=O)CCO4)cc3c2C(C)C)cc(C)n1` (stereo not drawn) [Example 324]: 45000 nM, 44 nM and 114 nM.
With `Cc1c(-c2[nH]c3ccc(C4CC5CN(C(C)C)CC5C4)cc3c2C(C)C)cn2cnnc2c1C` (stereo not drawn) [Example 560], the IC50 was 2330 nM against human TLR9, 1 nM at human TLR7 and 27 nM on human TLR8.
The matching figures for `Cc1c(-c2[nH]c3ccc(C4CN(CC(=O)N(C)C)C4)cc3c2C(C)C)cn2ncnc2c1C` [Example 556]: 5120 nM, 6 nM and 4.9 nM.
